Experimental data reported in ChEMBL document CHEMBL2331094 (Bioorg Med Chem Lett, 2013).

Key:
Type in all cases: cell-based
[1] = molecular target: T1, Lysophosphatidic acid receptor 4 (Homo sapiens, UniProt Q99677); experiment: Intrinsic activity at human LPA4 receptor transfected in HEK293 cells after 1 hr by TGFalpha shedding assay in presence of Ki16425 relative to LPA
[2] = molecular target: T2, Lysophosphatidic acid receptor 5 (Homo sapiens, UniProt Q9H1C0); experiment: Intrinsic activity at human LPA5 receptor transfected in HEK293 cells after 1 hr by TGFalpha shedding assay in presence of Ki16425 relative to LPA
[3] = molecular target: T3, Lysophosphatidic acid receptor 6 (Homo sapiens) (UniProt P43657); experiment: Intrinsic activity at human LPA6 receptor transfected in HEK293 cells after 1 hr by TGFalpha shedding assay in presence of Ki16425 relative to LPA
T3 sequence (whole entry): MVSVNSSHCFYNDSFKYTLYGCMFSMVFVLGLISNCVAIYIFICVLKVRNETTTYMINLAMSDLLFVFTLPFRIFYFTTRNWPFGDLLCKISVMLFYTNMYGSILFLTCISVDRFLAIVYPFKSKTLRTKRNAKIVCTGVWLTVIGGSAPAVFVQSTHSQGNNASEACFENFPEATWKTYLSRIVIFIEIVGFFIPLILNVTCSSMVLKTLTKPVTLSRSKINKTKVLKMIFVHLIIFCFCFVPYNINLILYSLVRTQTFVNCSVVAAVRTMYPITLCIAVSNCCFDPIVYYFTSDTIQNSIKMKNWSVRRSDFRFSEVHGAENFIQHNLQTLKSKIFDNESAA

[4] = molecular target: T4, Lysophosphatidic acid receptor 3 (Homo sapiens) (UniProt Q9UBY5); experiment: Intrinsic activity at human LPA3 receptor transfected in HEK293 cells after 1 hr by TGFalpha shedding assay relative to LPA
T4 sequence (whole entry): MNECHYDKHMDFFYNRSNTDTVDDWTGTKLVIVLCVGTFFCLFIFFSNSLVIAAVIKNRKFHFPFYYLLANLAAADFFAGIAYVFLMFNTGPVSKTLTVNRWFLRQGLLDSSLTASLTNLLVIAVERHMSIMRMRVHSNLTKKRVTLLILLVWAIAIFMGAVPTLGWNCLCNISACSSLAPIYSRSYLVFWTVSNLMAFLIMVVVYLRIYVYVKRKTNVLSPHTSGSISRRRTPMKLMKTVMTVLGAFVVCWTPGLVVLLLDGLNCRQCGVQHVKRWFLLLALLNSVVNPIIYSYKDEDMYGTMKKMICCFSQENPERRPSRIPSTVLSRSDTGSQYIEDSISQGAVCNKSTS

[5] = molecular target: T5, Lysophosphatidic acid receptor 1 (Homo sapiens, UniProt Q92633); experiment: Intrinsic activity at human LPA1 receptor transfected in HEK293 cells after 1 hr by TGFalpha shedding assay relative to LPA
[6] = molecular target: T6, Lysophosphatidic acid receptor 2 (Homo sapiens, UniProt Q9HBW0); experiment: Intrinsic activity at human LPA2 receptor transfected in HEK293 cells after 1 hr by TGFalpha shedding assay relative to LPA
[7] = molecular target: T7, Lysophosphatidic acid receptor 6 (Homo sapiens, UniProt P43657); experiment: Agonist activity at human LPA6 receptor transfected in HEK293 cells after 1 hr by TGFalpha shedding assay in presence of Ki16425
T7 sequence (P43657 whole entry): T3 sequence (whole entry)

[8] = molecular target: T2, Lysophosphatidic acid receptor 5; experiment: Agonist activity at human LPA5 receptor transfected in HEK293 cells after 1 hr by TGFalpha shedding assay in presence of Ki16425
[9] = molecular target: T1, Lysophosphatidic acid receptor 4; experiment: Agonist activity at human LPA4 receptor transfected in HEK293 cells after 1 hr by TGFalpha shedding assay in presence of Ki16425
[10] = molecular target: T8, Lysophosphatidic acid receptor 3 (Homo sapiens, UniProt Q9UBY5); experiment: Agonist activity at human LPA3 receptor transfected in HEK293 cells after 1 hr by TGFalpha shedding assay
T8 sequence (Q9UBY5 whole entry): T4 sequence (whole entry)

[11] = molecular target: T5, Lysophosphatidic acid receptor 1; experiment: Agonist activity at human LPA1 receptor transfected in HEK293 cells after 1 hr by TGFalpha shedding assay
[12] = molecular target: T6, Lysophosphatidic acid receptor 2; experiment: Agonist activity at human LPA2 receptor transfected in HEK293 cells after 1 hr by TGFalpha shedding assay

T2 sequence (Q9H1C0 whole entry): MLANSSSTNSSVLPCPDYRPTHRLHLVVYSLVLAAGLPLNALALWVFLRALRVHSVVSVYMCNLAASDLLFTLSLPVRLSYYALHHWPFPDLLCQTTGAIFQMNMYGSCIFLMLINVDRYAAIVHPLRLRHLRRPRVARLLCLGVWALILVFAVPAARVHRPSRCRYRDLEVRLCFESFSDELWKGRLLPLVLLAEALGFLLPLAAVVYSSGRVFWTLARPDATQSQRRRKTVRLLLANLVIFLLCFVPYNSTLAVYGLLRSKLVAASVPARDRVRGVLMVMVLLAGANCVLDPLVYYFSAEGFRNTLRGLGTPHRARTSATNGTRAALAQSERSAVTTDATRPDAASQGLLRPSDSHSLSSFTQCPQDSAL
T1 sequence (Q99677 whole entry): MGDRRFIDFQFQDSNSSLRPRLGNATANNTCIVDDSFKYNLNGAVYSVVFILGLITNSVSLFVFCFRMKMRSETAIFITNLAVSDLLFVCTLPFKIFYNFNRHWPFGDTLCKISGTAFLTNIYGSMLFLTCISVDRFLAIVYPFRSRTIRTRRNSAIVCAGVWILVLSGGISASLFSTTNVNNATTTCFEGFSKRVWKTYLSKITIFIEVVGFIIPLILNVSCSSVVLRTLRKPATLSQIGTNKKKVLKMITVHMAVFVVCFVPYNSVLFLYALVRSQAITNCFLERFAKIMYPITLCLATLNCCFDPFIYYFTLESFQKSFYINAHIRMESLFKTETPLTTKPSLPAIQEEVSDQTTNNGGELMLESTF
T6 sequence (Q9HBW0 whole entry): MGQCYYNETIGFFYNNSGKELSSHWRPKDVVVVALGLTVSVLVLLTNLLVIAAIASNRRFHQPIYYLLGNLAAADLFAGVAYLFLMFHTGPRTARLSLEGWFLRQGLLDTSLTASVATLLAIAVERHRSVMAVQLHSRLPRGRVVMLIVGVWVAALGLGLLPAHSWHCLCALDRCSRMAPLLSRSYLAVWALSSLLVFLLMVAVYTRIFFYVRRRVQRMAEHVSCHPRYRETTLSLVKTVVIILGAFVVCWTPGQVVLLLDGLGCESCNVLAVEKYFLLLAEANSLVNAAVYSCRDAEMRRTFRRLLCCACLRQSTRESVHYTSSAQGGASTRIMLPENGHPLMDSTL
T5 sequence (Q92633 whole entry): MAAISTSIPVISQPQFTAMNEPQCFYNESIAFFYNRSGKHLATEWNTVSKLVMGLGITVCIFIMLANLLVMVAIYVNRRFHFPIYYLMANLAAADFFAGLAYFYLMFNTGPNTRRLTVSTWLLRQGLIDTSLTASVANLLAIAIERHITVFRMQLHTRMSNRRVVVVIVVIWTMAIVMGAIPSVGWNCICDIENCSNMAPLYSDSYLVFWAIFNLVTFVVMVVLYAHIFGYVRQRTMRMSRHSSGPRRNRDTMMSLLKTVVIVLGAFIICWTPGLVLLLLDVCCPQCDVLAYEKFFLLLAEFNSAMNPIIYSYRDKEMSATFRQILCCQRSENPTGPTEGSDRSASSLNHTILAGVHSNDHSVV

| SMILES | Intrinsic activity [1] | Intrinsic activity [2] | Intrinsic activity [3] | Intrinsic activity [4] | Intrinsic activity [5] | Intrinsic activity [6] | EC50 [7] | EC50 [8] | EC50 [9] | EC50 [10] | EC50 [11] | EC50 [12] |
| --- | --- | --- | --- | --- | --- | --- | --- | --- | --- | --- | --- | --- |
| CCCCCCCCCCCCCCCCCCOCC(COP(O)(O)=S)OC (racemic) | 2.2 | 114 | 27 | 570 | 1.63 | 0.26 | 39 nM | 0.83 nM | 3.8 nM | 0.23 nM | 8.4 nM | 100 nM |
| CCCCCCCC/C=C\CCCCCCCC(=O)OC[C@@H](O)COP(=O)(O)O [LYSOPHOSPHATIDIC ACID] | 1 | 1 | 1 | 1 | 1 | 1 | – | – | – | – | 18 nM | – |
| CCCCCCCCCCCCCCCCCC(=O)OCC(COP(=O)(O)S)OC (racemic) | 2.6 | 11.1 | 13.3 | 410 | 0.79 | 0.188 | 86 nM | 6.3 nM | 3.3 nM | 0.28 nM | 16.5 nM | 161 nM |
| CCCCCCCCCCCCCCCCOC(COC)COP(O)(O)=S (configuration not stated) | 2.1 | 300 | 10.9 | 300 | 0.38 | 0.046 | 66 nM | 0.26 nM | 3.8 nM | 0.36 nM | 26 nM | 116 nM |
| CCCCCCCCCCCCCCCCCC(=O)OC[C@H](COP(O)(O)=S)OC | 1.6 | 8.4 | 19.3 | 260 | 0.61 | 0.178 | 58 nM | 8.2 nM | 4.9 nM | 0.44 nM | 24 nM | 149 nM |
| CCCCCCCCCCCCCCCCCC(=O)OC(COC)COP(O)(O)=S (racemic) | 3.9 | 41 | 14.3 | 600 | 1.15 | 0.165 | 76 nM | 1.81 nM | 2.4 nM | 0.21 nM | 12.2 nM | 146 nM |
| CCCCCCCCCCCCCCCCCCOC[C@@H](COP(O)(O)=S)OC | 2.7 | 23 | 11 | 390 | 1.2 | 0.34 | 90 nM | 3.4 nM | 3.5 nM | 0.37 nM | 10.1 nM | 110 nM |
| CCCCCCCCCCCCCCCC(=O)OC[C@@H](O)COP(=O)(O)O | 0.14 | 1.04 | 0.25 | 0.102 | 0.24 | 0.092 | 930 nM | 68 nM | 84 nM | 580 nM | 71 nM | 290 nM |
| CCCCCCCCCCCCCCCCCC(=O)OC[C@@H](COP(O)(O)=S)OC | 3.1 | 14.8 | 13.1 | 500 | 0.94 | 0.25 | 79 nM | 5.1 nM | 2.7 nM | 0.27 nM | 14.7 nM | 112 nM |
| CCCCCCCCCCCCCCCCCOC(COC)COP(O)(O)=S (racemic) | 2 | 26 | 15.1 | 340 | 1.29 | 0.3 | 78 nM | 3 nM | 4.5 nM | 0.39 nM | 11.1 nM | 117 nM |
| CCCCCCCCCCCCCCCCCCOC[C@H](COP(O)(O)=S)OC | 2.1 | 16 | 10.9 | 140 | 0.57 | 0.088 | 105 nM | 6.1 nM | 4.9 nM | 1.08 nM | 31 nM | 350 nM |
